Experimental data from patent US20230143604A1, “QW DOSING OF GIP RECEPTOR AGONIST PEPTIDE COMPOUNDS AND USES THEREOF” (TAKEDA PHARMACEUTICAL COMPANY LIMITED, priority 2020, published 2023).
pEC50: −log10 of the molar value. Read-outs that look alike come from different tables or passages of the source.

Tests used:
[1] = molecular target: T1, human GLP-1R (Homo sapiens, UniProt P43220); assay: Human GLP1R agonist activity, intracellular cAMP accumulation; type: cell-based; settings: HEK-293T cells overexpressing human GLP-1R, 1 hr; for EC50: Human GLP1R cAMP EC50, HEK293T (nM); for pEC50: read-out: Human GLP1R cAMP EC50, HEK293T
T1 construct: HEK-293T cells overexpressing full-length human GLP-1R; FLAG (N); host or cells: HEK-293T
T1 sequence (P43220 24-463): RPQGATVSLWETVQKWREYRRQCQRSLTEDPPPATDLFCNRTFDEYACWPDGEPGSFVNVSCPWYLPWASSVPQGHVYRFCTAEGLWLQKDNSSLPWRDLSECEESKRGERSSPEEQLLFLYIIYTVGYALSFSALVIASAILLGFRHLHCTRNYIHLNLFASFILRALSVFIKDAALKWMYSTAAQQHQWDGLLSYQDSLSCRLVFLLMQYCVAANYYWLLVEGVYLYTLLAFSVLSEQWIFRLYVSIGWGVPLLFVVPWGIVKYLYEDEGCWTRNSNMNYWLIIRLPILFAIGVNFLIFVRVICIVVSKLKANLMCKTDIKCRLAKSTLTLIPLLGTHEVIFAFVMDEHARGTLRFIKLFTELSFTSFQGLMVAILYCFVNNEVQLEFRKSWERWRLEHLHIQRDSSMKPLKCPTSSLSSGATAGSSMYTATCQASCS
Summary of the method: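 Frozen assay-ready cells washed and resuspended at 4×10^5 cells/mL in Krebs Ringer buffer, then incubated with compound 1 hr at room temperature in the dark. cAMP read by HTRF (anti-cAMP antibody, d2-cAMP tracer). Normalised to 1 nm GLP-1 (100%) and DMSO (0%).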

[2] = tested on: C57BL/6J mice; assay: Oral glucose tolerance test (OGTT); type: in vivo; settings: 3 nmol/kg s.c., 24 hours before glucose loading
Procedure: An oral glucose tolerance test (OGTT) was carried out using C57BL/6J mice with a 50% dextrose solution dosed at 5 ml/kg. Testing concentrations of 0.1 nmol/kg, 0.3 nmmol/kg, 3 nmol/kg or 10 nmol/kg were selected depending on the peptide. Each peptide or a vehicle (control group) was subcutaneously administered 24 hours (unless shown otherwise) before glucose loading and the blood glucose was measured at 0, 15, 30, and 60 minutes after glucose dosing.
% inhibition=(1−(AUC cpd−AUC naïve/AUC veh−AUC naïve))×100.

[3] = Solubility in phosphate buffer pH 7.4
Summary of the method: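 3 mg of peptide treated with 100 μL portions of 200 mM phosphate buffer pH 7.4, sonicating/vortexing up to 1 min, with further buffer added until fully dissolved. Solubility then quantified by HPLC.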

[4] = pH 7.4, aqueous buffer, pH 7.4 Phosphate Buffer - Solubility, 200 mM Phosphate buffer pH 7.4
[5] = pH 7.4, solubility in phosphate buffer at pH 7.4, 200 mM phosphate buffer pH 7.4

Compound	EC50 [1]	Oral Glucose Tolerance Test Percent decrease in blood glucose AUC (%) over 60 mins [2]	solubility [3, 4]	solubility [3, 5]	pEC50 [1]	solubility ([3]; pH 7.4)	solubility ([3]; pH 7.4, aqueous buffer)
CC[C@H](C)[C@H](NC(=O)[C@H](Cc1ccccc1)NC(=O)[C@@H](NC(=O)CNC(=O)[C@H](CCC(=O)O)NC(=O)C(C)(C)NC(=O)[C@H](Cc1ccc(O)cc1)NC)[C@@H](C)O)C(=O)N[C@@H](CO)C(=O)N[C@@H](CC(=O)O)C(=O)N[C@@H](Cc1ccc(O)cc1)C(=O)N[C@@H](CO)C(=O)N[C@H](C(=O)NC(C)(C)C(=O)N[C@@H](CCCCNC(=O)CNC(=O)CNC(=O)CNC(=O)CNC(=O)CNC(=O)CCCCCCCCCCCCCCCCC(=O)O)C(=O)N[C@@H](CC(=O)O)C(=O)N[C@@H](CCCNC(=N)N)C(=O)NC(C)(C)C(=O)N[C@@H](C)C(=O)N[C@@H](CCC(N)=O)C(=O)NC(C)(C)C(=O)N[C@@H](CC(=O)O)C(=O)N[C@@H](Cc1ccccc1)C(=O)N[C@H](C(=O)N[C@@H](CC(N)=O)C(=O)N[C@@H](Cc1c[nH]c2ccccc12)C(=O)N[C@@H](CC(C)C)C(=O)N[C@@H](CC(C)C)C(=O)N[C@@H](C)C(=O)N[C@@H](CCC(N)=O)C(=O)N[C@@H](CO)C(=O)N1CCC[C@H]1C(=O)N[C@@H](CO)C(=O)N[C@@H](CO)C(=O)NCC(=O)N[C@@H](C)C(=O)N1CCC[C@H]1C(=O)N1CCC[C@H]1C(=O)N1CCC[C@H]1C(=O)N[C@@H](CO)C(N)=O)C(C)C)[C@@H](C)CC [Compound 48]	87.1 nM	87% (3 nmol/kg)	≥ 30 mg/mL	≥ 15 mg/mL			
CC[C@H](C)[C@H](NC(=O)[C@H](Cc1ccccc1)NC(=O)[C@@H](NC(=O)CNC(=O)[C@H](CCC(=O)O)NC(=O)C(C)(C)NC(=O)[C@H](Cc1ccc(O)cc1)NC)[C@@H](C)O)C(=O)N[C@@H](CO)C(=O)N[C@@H](CC(=O)O)C(=O)N[C@@H](Cc1ccc(O)cc1)C(=O)N[C@@H](CO)C(=O)N[C@H](C(=O)NC(C)(C)C(=O)N[C@@H](CC(C)C)C(=O)N[C@@H](CC(=O)O)C(=O)N[C@@H](CO)C(=O)N[C@@H](CCCCNC(=O)CNC(=O)CNC(=O)CNC(=O)CNC(=O)CNC(=O)CNC(=O)CCCCCCCCCCCCCCCCC(=O)O)C(=O)N[C@@H](C)C(=O)N[C@@H](CCC(N)=O)C(=O)NC(C)(C)C(=O)N[C@@H](CC(=O)O)C(=O)N[C@@H](Cc1ccccc1)C(=O)N[C@H](C(=O)N[C@@H](CC(N)=O)C(=O)N[C@@H](Cc1c[nH]c2ccccc12)C(=O)N[C@@H](CC(C)C)C(=O)N[C@@H](CC(C)C)C(=O)N[C@@H](C)C(=O)N[C@@H](CCC(N)=O)C(=O)N[C@@H](CCCNC(=N)N)C(=O)NCC(=O)O)C(C)C)[C@@H](C)CC [Compound 64]		53% (3 nmol/kg)			6.96	≥ 15 mg/mL	≥ 30 mg/mL
CC[C@H](C)[C@H](NC(=O)[C@H](CO)NC(=O)[C@H](Cc1ccc(O)cc1)NC(=O)[C@H](CC(=O)O)NC(=O)[C@H](CO)NC(=O)[C@@H](NC(=O)[C@H](Cc1ccccc1)NC(=O)[C@@H](NC(=O)CNC(=O)[C@H](CCC(=O)O)NC(=O)C(C)(C)NC(=O)[C@H](Cc1ccc(O)cc1)NC)[C@@H](C)O)[C@@H](C)CC)C(=O)N[C@@H](C)C(=O)N[C@@H](CCCCNC(=O)CNC(=O)CNC(=O)CNC(=O)CNC(=O)CNC(=O)CCCCCCCCCCCCCCCCC(=O)O)C(=O)N[C@@H](CC(=O)O)C(=O)N[C@@H](CCCNC(=N)N)C(=O)NC(C)(C)C(=O)N[C@@H](C)C(=O)N[C@@H](CCC(N)=O)C(=O)NC(C)(C)C(=O)N[C@@H](CC(N)=O)C(=O)N[C@@H](Cc1ccccc1)C(=O)N[C@H](C(=O)N[C@@H](CC(N)=O)C(=O)N[C@@H](Cc1c[nH]c2ccccc12)C(=O)N[C@@H](CC(C)C)C(=O)N[C@@H](CC(C)C)C(=O)N[C@@H](C)C(=O)N[C@@H](CCC(N)=O)C(=O)N[C@@H](CO)C(=O)N1CCC[C@H]1C(=O)NCC(=O)O)C(C)C [Compound 114]		50% (3 nmol/kg)			7.93	≥ 15 mg/mL	≥ 30 mg/mL
CC[C@H](C)[C@H](NC(=O)[C@H](CO)NC(=O)[C@H](Cc1ccc(O)cc1)NC(=O)[C@H](CC(=O)O)NC(=O)[C@H](CO)NC(=O)[C@@H](NC(=O)[C@H](Cc1ccccc1)NC(=O)[C@@H](NC(=O)CNC(=O)[C@H](CCC(=O)O)NC(=O)C(C)(C)NC(=O)[C@H](Cc1ccc(O)cc1)NC)[C@@H](C)O)[C@@H](C)CC)C(=O)N[C@@H](C)C(=O)N[C@@H](CCCCNC(=O)CNC(=O)CNC(=O)CNC(=O)CNC(=O)CNC(=O)CCCCCCCCCCCCCCCCC(=O)O)C(=O)N[C@@H](CC(=O)O)C(=O)N[C@@H](CCCNC(=N)N)C(=O)NC(C)(C)C(=O)N[C@@H](C)C(=O)N[C@@H](CCC(N)=O)C(=O)NC(C)(C)C(=O)N[C@@H](CC(=O)O)C(=O)N[C@@H](Cc1ccccc1)C(=O)N[C@H](C(=O)N[C@@H](CC(N)=O)C(=O)N[C@@H](Cc1c[nH]c2ccccc12)C(=O)N[C@@H](CC(C)C)C(=O)N[C@@H](CC(C)C)C(=O)N[C@@H](C)C(=O)N[C@@H](CCC(N)=O)C(=O)N[C@@H](CCCCNC(C)=O)C(=O)NCC(=O)O)C(C)C [Compound 81]		66% (3 nmol/kg)			7.47	≥ 15 mg/mL	≥ 30 mg/mL
CC[C@H](C)[C@H](NC(=O)[C@H](CO)NC(=O)[C@H](Cc1ccc(O)cc1)NC(=O)[C@H](CC(=O)O)NC(=O)[C@H](CO)NC(=O)[C@@H](NC(=O)[C@H](Cc1ccccc1)NC(=O)[C@@H](NC(=O)CNC(=O)[C@H](CCC(=O)O)NC(=O)C(C)(C)NC(=O)[C@H](Cc1ccc(O)cc1)NC)[C@@H](C)O)[C@@H](C)CC)C(=O)N[C@@H](C)C(=O)N[C@@H](CCCCNC(=O)CNC(=O)CNC(=O)CNC(=O)CNC(=O)CNC(=O)CCCCCCCCCCCCCCCCC(=O)O)C(=O)N[C@@H](CC(=O)O)C(=O)N[C@@H](CCCNC(=N)N)C(=O)NC(C)(C)C(=O)N[C@@H](C)C(=O)N[C@@H](CCC(N)=O)C(=O)NC(C)(C)C(=O)N[C@@H](CC(=O)O)C(=O)N[C@@H](Cc1ccccc1)C(=O)N[C@H](C(=O)N[C@@H](CC(N)=O)C(=O)N[C@@H](Cc1c[nH]c2ccccc12)C(=O)N[C@@H](CC(C)C)C(=O)N[C@@H](CC(C)C)C(=O)N[C@@H](C)C(=O)N[C@@H](CCC(N)=O)C(=O)N[C@@H](CO)C(=O)N1CCC[C@H]1C(=O)N[C@@H](CO)C(=O)N[C@@H](CO)C(=O)NCC(=O)N[C@@H](C)C(=O)N1CCC[C@H]1C(=O)N1CCC[C@H]1C(=O)N1CCC[C@H]1C(=O)N[C@@H](CO)C(N)=O)C(C)C [Compound 38]	45.7 nM	97% (3 nmol/kg)	≥ 30 mg/mL	≥ 15 mg/mL			
CC[C@H](C)[C@H](NC(=O)[C@H](CO)NC(=O)[C@H](Cc1ccc(O)cc1)NC(=O)[C@H](CC(=O)O)NC(=O)[C@H](CO)NC(=O)[C@@H](NC(=O)[C@H](Cc1ccccc1)NC(=O)[C@@H](NC(=O)CNC(=O)[C@H](CCC(=O)O)NC(=O)C(C)(C)NC(=O)[C@@H](N)Cc1ccc(O)cc1)[C@@H](C)O)[C@@H](C)CC)C(=O)N[C@@H](C)C(=O)N[C@@H](CCCCNC(=O)CNC(=O)CNC(=O)CNC(=O)CNC(=O)CNC(=O)CCCCCCCCCCCCCCCCC(=O)O)C(=O)N[C@@H](CC(=O)O)C(=O)N[C@@H](CCCNC(=N)N)C(=O)NC(C)(C)C(=O)N[C@@H](C)C(=O)N[C@@H](CCC(N)=O)C(=O)N[C@@H](C)C(=O)N[C@@H](CC(=O)O)C(=O)N[C@@H](Cc1ccccc1)C(=O)N[C@H](C(=O)N[C@@H](CCC(=O)O)C(=O)N[C@@H](Cc1c[nH]c2ccccc12)C(=O)N[C@@H](CC(C)C)C(=O)N[C@@H](CC(C)C)C(=O)N[C@@H](C)C(=O)N[C@@H](CCC(N)=O)C(=O)N[C@@H](CCCNC(=N)N)C(=O)NCC(=O)O)C(C)C [Compound 149]		13% (3 nmol/kg)			7.80	≥ 15 mg/mL	≥ 30 mg/mL
CC[C@H](C)[C@H](NC(=O)[C@H](CO)NC(=O)[C@H](Cc1ccc(O)cc1)NC(=O)[C@H](CC(=O)O)NC(=O)[C@H](CO)NC(=O)[C@@H](NC(=O)[C@H](Cc1ccccc1)NC(=O)[C@@H](NC(=O)CNC(=O)[C@H](CCC(=O)O)NC(=O)C(C)(C)NC(=O)[C@H](Cc1ccc(O)cc1)NC)[C@@H](C)O)[C@@H](C)CC)C(=O)N[C@@H](C)C(=O)N[C@@H](CC(C)C)C(=O)N[C@@H](CC(=O)O)C(=O)N[C@@H](CCCNC(=N)N)C(=O)N[C@@H](CCCCNC(=O)CNC(=O)CNC(=O)CNC(=O)CNC(=O)CNC(=O)CCCCCCCCCCCCCCCCC(=O)O)C(=O)N[C@@H](C)C(=O)N[C@@H](CCC(N)=O)C(=O)NC(C)(C)C(=O)N[C@@H](CC(=O)O)C(=O)N[C@@H](Cc1ccccc1)C(=O)N[C@H](C(=O)N[C@@H](CCC(=O)O)C(=O)N[C@@H](Cc1c[nH]c2ccccc12)C(=O)N[C@@H](CC(C)C)C(=O)N[C@@H](CC(C)C)C(=O)N[C@@H](C)C(=O)N[C@@H](CCC(N)=O)C(=O)N[C@@H](CCCNC(=N)N)C(=O)NCC(=O)O)C(C)C [Compound 115]		40% (3 nmol/kg)			7.39	≥ 15 mg/mL	≥ 30 mg/mL
